Assay results published in patent publication US20240270699A1, “COMPOUNDS HAVING N-ARYLPYRIMIDIN-2-AMINE DERIVATIVES AS THERAPEUTIC AGENTS” (Lomond Therapeutics, Inc., priority 2021, published 2024).
Read-outs that look alike come from different tables or passages of the source.

Key:
[1] = test system: Jurkat cells; assay: IL-2 release Jurkat assay (anti-CD3/anti-CD28 stimulation, IL-2 ELISA); assay type: cell-based, human; conditions: activation with 400 ng/mL aCD3 + 400 ng/mL aCD28, 24 hours
[2] = Pharmacokinetic (PK) study in mice; assay type: in vivo; conditions: mouse, plasma, male CD-1 mice, PO 10 mg/kg, solution, vs IV 2 mg/kg, read-out: Fabs, % (percent bioavailability)
[3] = biological target: T1, recombinant HPK1 protein (Homo sapiens, UniProt Q92918); assay: Primary assay of HPK1 enzymatic activity inhibition (ADP-Glo luminescence); assay type: biochemical; conditions: recombinant HPK1, MBP substrate, 1 hour at room temperature
T1 construct: purchased Promega V6398
T1 sequence (Q92918 1-346 limits assumed): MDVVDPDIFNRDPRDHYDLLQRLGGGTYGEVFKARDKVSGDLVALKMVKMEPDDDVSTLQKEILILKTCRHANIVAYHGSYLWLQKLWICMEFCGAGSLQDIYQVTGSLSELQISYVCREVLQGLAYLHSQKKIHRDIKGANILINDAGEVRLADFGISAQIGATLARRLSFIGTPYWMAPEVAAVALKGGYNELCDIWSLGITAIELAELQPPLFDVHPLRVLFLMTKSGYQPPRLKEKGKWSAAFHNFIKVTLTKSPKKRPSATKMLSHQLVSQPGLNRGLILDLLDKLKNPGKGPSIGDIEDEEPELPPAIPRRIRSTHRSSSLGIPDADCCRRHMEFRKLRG

[4] = Table B: Jurkat, 1.5 μM of tested compounds
[5] = vehicle 80% PEG400, 10% TPGS and 10% ethanol
[6] = Table C: Jurkat, 6 μM of tested compounds, stimulated vehicle = A
[7] = Table E: Jurkat, 1.5 μM of tested compounds

bioavailability [2, 5] | IC50 [3] | Compound | IL-2, pg/mL stimulated [1, 4] | IL-2, pg/mL stimulated [1, 6] | also measured
16.3% | < 50 nM | O=C1CCc2cc(Nc3ncc(-c4nnco4)c(N[C@H](CO)c4ccccc4)n3)ccc2N1 [Compound 19, 6-[[4-[[(1S)-2-hydroxy-1-phenyl-ethyl]amino]-5-(1,3,4-oxadiazol-2-yl)pyrimidin-2-yl]amino]-3,4-dihydro-1H-quinolin-2-one] | B (5.0 pg/mL≤IL-2<25.0 pg/mL) | – | –
83.6% | < 50 nM | Cc1noc(-c2cnc(Nc3ccc4c(c3)CCC(=O)N4)nc2N[C@H](CO)c2ccccc2)n1 [Compound 86, 6-[[4-[[(1S)-2-hydroxy-1-phenyl-ethyl]amino]-5-(3-methyl-1,2,4-oxadiazol-5-yl)pyrimidin-2-yl]amino]-3,4-dihydro-1H-quinolin-2-one] | C (25.0 pg/mL≤IL-2<35.0 pg/mL) | – | –
9.2% | < 50 nM | O=C1NCCc2cc(Nc3ncc(-c4nnco4)c(N[C@H](CO)c4ccccc4)n3)ccc21 [Compound 563, 6-[[4-[[(1S)-2-hydroxy-1-phenyl-ethyl]amino]-5-(1,3,4-oxadiazol-2-yl)pyrimidin-2-yl]amino]-3,4-dihydro-2H-isoquinolin-1-one] | – | – | –
– | < 50 nM | CS(=O)(=O)c1ccc(Nc2ncc(-c3nnco3)c(N[C@H](CO)c3ccccc3)n2)cc1F [Compound 161, (2S)-2-{[2-{[3-fluoro-4-(methylsulfonyl)phenyl]amino}-5-(1,3,4-oxadiazol-2-yl)pyrimidin-4-yl]amino}-2-phenylethanol] | – | C (100 pg/mL≤IL-2<150 pg/mL) | bioavailability ([2]; vehicle 20% HP-b-CD): 95.1%
11.4% | < 50 nM | O=S1(=O)CCCc2cc(Nc3ncc(-c4nnco4)c(N[C@H](CO)c4ccccc4)n3)ccc21 [Compound 228, (2S)-2-[[2-[(1,1-dioxo-3,4-dihydro-2H-thiochromen-6-yl)amino]-5-(1,3,4-oxadiazol-2-yl)pyrimidin-4-yl]amino]-2-phenyl-ethanol] | – | – | IL-2, pg/mL stimulated [1, 7]: B (50 pg/mL≤IL-2<100 pg/mL)
76.5% | < 50 nM | Cc1noc(-c2cnc(Nc3ccc(S(C)(=O)=O)c(F)c3)nc2N[C@H](CO)c2ccccc2)n1 [Compound 270, (2S)-2-{[2-{[3-fluoro-4-(methylsulfonyl)phenyl]amino}-5-(3-methyl-1,2,4-oxadiazol-5-yl)pyrimidin-4-yl]amino}-2-phenylethanol] | – | A (IL-2<50 pg/mL) | –
16.3% | < 50 nM | Cc1noc(-c2cnc(Nc3ccc4c(c3)CCNC4=O)nc2N[C@H](CO)c2ccccc2)n1 [Compound 558, 6-[[4-[[(1S)-2-hydroxy-1-phenyl-ethyl]amino]-5-(3-methyl-1,2,4-oxadiazol-5-yl)pyrimidin-2-yl]amino]-3,4-dihydro-2H-isoquinolin-1-one] | – | – | IL-2, pg/mL stimulated ([1]; Table D: Jurkat, 6 μM of tested compounds, stimulated vehicle = B): D (150 pg/mL≤IL-2)
8% | < 50 nM | Cc1noc(-c2cnc(Nc3ccc4c(c3)CNC4=O)nc2N[C@H](CO)c2ccccc2)n1 [Compound 571, 5-[[4-[[(1S)-2-hydroxy-1-phenyl-ethyl]amino]-5-(3-methyl-1,2,4-oxadiazol-5-yl)pyrimidin-2-yl]amino]isoindolin-1-one] | C (25.0 pg/mL≤IL-2<35.0 pg/mL) | – | –
– | < 50 nM | CS(=O)(=O)c1cnc(Nc2ccc3c(c2)CCNC3=O)nc1N[C@H](CO)c1ccccc1 [Compound 564, 6-[[4-[[(1S)-2-hydroxy-1-phenyl-ethyl]amino]-5-methylsulfonyl-pyrimidin-2-yl]amino]-3,4-dihydro-2H-isoquinolin-1-one] | B (5.0 pg/mL≤IL-2<25.0 pg/mL) | – | –
– | < 50 nM | COc1cccc([C@@H](CO)Nc2nc(Nc3ccc4c(c3)CCNC4=O)ncc2-c2nc(C)no2)c1 [Compound 575, 6-[[4-[[(1S)-2-hydroxy-1-(3-methoxyphenyl)ethyl]amino]-5-(3-methyl-1,2,4-oxadiazol-5-yl)pyrimidin-2-yl]amino]-3,4-dihydro-2H-isoquinolin-1-one] | – | – | IL-2, pg/mL stimulated [1, 7]: C (100 pg/mL≤IL-2<150 pg/mL)
– | < 50 nM | CCOC(=O)c1cnc(Nc2ccc3c(c2)CCNC3=O)nc1N[C@H](CO)c1cccc(OC)c1 [Compound 570, ethyl 4-[[(1S)-2-hydroxy-1-(3-methoxyphenyl)ethyl]amino]-2-[(1-oxo-3,4-dihydro-2H-isoquinolin-6-yl)amino]pyrimidine-5-carboxylate] | B (5.0 pg/mL≤IL-2<25.0 pg/mL) | – | –
– | 200 to 500 nM | Cc1cc(Nc2ncc([N+](=O)[O-])c(N[C@H](CO)c3ccccc3)n2)ccc1S(C)(=O)=O [Compound 18, (2S)-2-[[2-(3-methyl-4-methylsulfonyl-anilino)-5-nitro-pyrimidin-4-yl]amino]-2-phenyl-ethanol] | – | D (150 pg/mL≤IL-2) | –
– | 200 to 500 nM | CCOC(=O)c1cnc(Nc2ccc(F)c(-c3ccccc3)c2)nc1N[C@H](CO)c1ccccc1 [Compound 195, Ethyl 2-[(6-fluorobiphenyl-3-yl)amino]-4-{[(1S)-2-hydroxy-1-phenylethyl]amino}pyrimidine-5-carboxylate] | C (25.0 pg/mL≤IL-2<35.0 pg/mL) | – | –
19.9% | 50 to 200 nM | Cc1noc(-c2cnc(Nc3ccc(S(C)(=O)=O)c(C)c3)nc2N[C@H](CO)c2ccccc2)n1 [Compound 252, (2S)-2-{[2-{[3-methyl-4-(methylsulfonyl)phenyl]amino}-5-(3-methyl-1,2,4-oxadiazol-5-yl)pyrimidin-4-yl]amino}-2-phenylethanol] | – | B (50 pg/mL≤IL-2<100 pg/mL) | –
– | 200 to 500 nM | COCCNC(=O)c1cnc(Nc2ccc(S(C)(=O)=O)c(C)c2)nc1N[C@H](CO)c1ccccc1 [Compound 372, 4-[[(1S)-2-hydroxy-1-phenyl-ethyl]amino]-N-(2-methoxyethyl)-2-(3-methyl-4-methylsulfonyl-anilino)pyrimidine-5-carboxamide] | – | C (100 pg/mL≤IL-2<150 pg/mL) | –
– | < 50 nM | Cc1cc(Nc2ncc(C(=O)NCC(F)(F)F)c(N[C@H](CO)c3ccccc3)n2)ccc1S(C)(=O)=O [Compound 490, 4-{[(1S)-2-hydroxy-1-phenylethyl]amino}-2-{[3-methyl-4-(methylsulfonyl)phenyl]amino}-N-(2,2,2-trifluoroethyl)pyrimidine-5-carboxamide] | B (5.0 pg/mL≤IL-2<25.0 pg/mL) | – | –
– | 50 to 200 nM | COCCNC(=O)c1cnc(Nc2ccc(S(C)(=O)=O)c(F)c2)nc1N[C@H](CO)c1ccccc1 [Compound 401, 2-(3-fluoro-4-methylsulfonyl-anilino)-4-[[(1S)-2-hydroxy-1-phenyl-ethyl]amino]-N-(2-methoxyethyl)-pyrimidine-5-carboxamide] | – | A (IL-2<50 pg/mL) | –
– | 50 to 200 nM | CCOC(=O)c1cnc(Nc2ccc(S(=O)(=O)CC)cc2)nc1N[C@H](CO)c1ccccc1 [Compound 168, Ethyl 2-{[4-(ethylsulfonyl)phenyl]amino}-4-{[(1S)-2-hydroxy-1-phenylethyl]amino}pyrimidine-5-carboxylate] | – | A (IL-2<50 pg/mL) | –
– | 50 to 200 nM | CCNC(=O)c1cnc(Nc2ccc(S(C)(=O)=O)c(C)c2)nc1N[C@H](CO)c1ccccc1 [Compound 156, N-ethyl-4-{[(1S)-2-hydroxy-1-phenylethyl]amino}-2-{[3-methyl-4-(methylsulfonyl)phenyl]amino}pyrimidine-5-carboxamide] | C (25.0 pg/mL≤IL-2<35.0 pg/mL) | – | –
– | < 50 nM | CS(=O)(=O)c1ccc(Nc2ncc(C(=O)OCCO)c(N[C@H](CO)c3ccccc3)n2)cc1F [Compound 319] | – | D (150 pg/mL≤IL-2) | –
– | < 50 nM | CCOC(=O)c1cnc(Nc2ccc3c(c2)CCN(C)C3=O)nc1N[C@H](CO)c1ccccc1 [Compound 122, Ethyl 4-{[(1S)-2-hydroxy-1-phenylethyl]amino}-2-[(2-methyl-1-oxo-1,2,3,4-tetrahydroisoquinolin-6-yl)amino]pyrimidine-5-carboxylate] | C (25.0 pg/mL≤IL-2<35.0 pg/mL) | – | –
